Results from US4281136A, “2-Alkyl-3-haloisothiazolium salts and their derivatives” (Givaudan Corporation, priority 1978, dated 1981).
Where two headings read alike, the source gives them in different places.

Assays:
Ps. aeruginosa = test: preservative for cutting oil emulsions; format: cell-based; settings: cutting oil emulsion, 28°, listed as CH3, Cl, Cl, O3SOMe
Protocol: Various aliquots of a 6% solution of the chemical in ethanol were added to cutting oil emulsions prepared by diluting Kutwell 30 cutting oil concentrate 1 to 30 with water. These samples were inoculated with a culture of Ps. aeruginosa and incubated at 28° on a rotary shaker. At weekly intervals the samples were examined for microorganisms and then reinoculated and incubated.

Aureobasidium pullulans = test: preservative for latex paints; format: cell-based; settings: three weeks, 27°-28°; for Zone (zone of inhibition): listed as CH3, Cl, Cl, O3SOMe; for Surface (growth on the surface of painted square): none, medium or heavy
Protocol: Various quantities of the chemical were incorporated into a white exterior vinyl acetate paint. Whatman #30 filter paper was painted with one coat of paint on each side. One inch squares were cut and placed in Petri dishes on a malt agar.
The surface of both the agar and the painted squares were inoculated with a spore suspension of Aureobasidium pullulans. The plates were examined for zones of inhibition and surface growth after three weeks incubation in a humidity chamber at 27°-28°.
Various quantities of 4,5-dichloro-2-methyl-4-isothiazolin-3-thione were incorporated into a white exterior vinyl acetate paint and tested as described in Example IV.

P. aeruginosa = test: slimicide for pulp and paper mill water systems, P. aeruginosa; format: cell-based; settings: for Minimum Inhibitory Concentration: P. aeruginosa
Protocol: (§1) Various quantities of a 6% solution of this compound in dimethylformamide were incorporated into 24 ml of a test substrate composed as follows:
(§2) 8.4 g Whatman No. 2 cellulose
(§3) 1.0 g Nutrient Broth, Difco
(§4) 10.0 ml Mersize Rm 70R (Monsanto)
(§5) The samples were inoculated with four different organisms and incubated at 28° C. At weekly intervals the samples were examined for the presence of microbial growth and reinoculated during a total incubation period of four weeks.
(§6) The test of Example V was used to determine the effectiveness of 4,5-dichloro-3-dicyanomethylene-2-methyl-4-isothiazoline as a slimicide.

E. aerogenes = test: slimicide for pulp and paper mill water systems, E. aerogenes; format: cell-based; settings: Klebsiella aerogenes
Protocol: as §1, §2, §3, §4, §5, §6

A. niger = test: slimicide for pulp and paper mill water systems, A. niger; format: cell-based; settings: for Minimum Inhibitory Concentration: A. niger
Protocol: as §1, §2, §3, §4, §5, §6

P. piscarium = test: slimicide for pulp and paper mill water systems, P. piscarium; format: cell-based
Protocol: as §1, §2, §3, §4, §5, §6

four different organisms = test: slimicide for pulp and paper mill water systems, overall; format: cell-based, P. aeruginosa, E. aerogenes, A. niger, P. Piscarium; settings: four weeks, 28° C.
Protocol: as §1, §2, §3, §4, §5

[1] = Conc. 0.25% in vinyl acetate paint
[2] = Conc. 0.5% in vinyl acetate paint

C[n+]1sc(Cl)c(Cl)c1Cl [No. 2 (Table I), 2-Methyl-3,4,5-trichloroisothiazolium methylsulfate] was tested. Which “Minimum Inhibitory Concentration” value (Ps. aeruginosa; incubation 1 week) did it give?
Its value is < 2 µg/mL.

What about the “Minimum Inhibitory Concentration” value (Ps. aeruginosa; incubation 2 weeks) of the same compound?
The value was < 2 µg/mL.

And the “Minimum Inhibitory Concentration” value (Ps. aeruginosa; incubation 3 weeks)?
Its value is < 16 µg/mL.

And the “Minimum Inhibitory Concentration” value (Ps. aeruginosa; incubation 4 weeks)?
Its value is < 16 µg/mL.

And the “Zone (zone of inhibition)” value (Aureobasidium pullulans; [1])?
The value was 0 mm.

And the “Surface (growth on the surface of painted square)” value (Aureobasidium pullulans; [1])?
Its value is “None”.

What about the “Zone (zone of inhibition)” value (Aureobasidium pullulans; [2]) of the same compound?
The value was > 20 mm.

What about the “Surface (growth on the surface of painted square)” value (Aureobasidium pullulans; [2]) of the same compound?
The value was “None”.

What about the Minimum Inhibitory Concentration (P. aeruginosa; week 2, 28° C.) of the same compound?
The Minimum Inhibitory Concentration was 7.8 µg/mL.

What about the Minimum Inhibitory Concentration (P. aeruginosa; week 3, 28° C.) of the same compound?
The Minimum Inhibitory Concentration was 7.8 µg/mL.

And the Minimum Inhibitory Concentration (P. aeruginosa; week 4, 28° C.)?
The Minimum Inhibitory Concentration was 7.8 µg/mL.

And the MIC (P. aeruginosa; Pseudomonas aeruginosa, read-out: Minimum inhibitory concentration)?
The MIC was 7.8 µg/mL.

What about the MIC (E. aerogenes; read-out: Minimum inhibitory concentration, E. aerogenes, week 1, 28° C.) of the same compound?
Its MIC is 3.9 µg/mL.

And the MIC (E. aerogenes; read-out: Minimum inhibitory concentration, E. aerogenes, week 2, 28° C.)?
The MIC was 3.9 µg/mL.

What about the MIC (E. aerogenes; read-out: Minimum inhibitory concentration, E. aerogenes, week 3, 28° C.) of the same compound?
The MIC was 3.9 µg/mL.

And the MIC (E. aerogenes; read-out: Minimum inhibitory concentration, E. aerogenes, week 4, 28° C.)?
Its MIC is 3.9 µg/mL.

And the Minimum Inhibitory Concentration (A. niger; week 2, 28° C.)?
Its Minimum Inhibitory Concentration is 3.9 µg/mL.

What about the Minimum Inhibitory Concentration (A. niger; week 3, 28° C.) of the same compound?
Its Minimum Inhibitory Concentration is 3.9 µg/mL.

What about the Minimum Inhibitory Concentration (A. niger; week 4, 28° C.) of the same compound?
The Minimum Inhibitory Concentration was 3.9 µg/mL.

And the MIC (A. niger; Aspergillus niger, read-out: Minimum inhibitory concentration)?
Its MIC is 3.9 µg/mL.

What about the MIC (P. piscarium; read-out: Minimum inhibitory concentration, P. Piscarium, week 1, 28° C.) of the same compound?
The MIC was 3.9 µg/mL.

And the MIC (P. piscarium; read-out: Minimum inhibitory concentration, P. Piscarium, week 2, 28° C.)?
Its MIC is 3.9 µg/mL.

What about the MIC (P. piscarium; read-out: Minimum inhibitory concentration, P. Piscarium, week 3, 28° C.) of the same compound?
Its MIC is 3.9 µg/mL.

What about the MIC (P. piscarium; read-out: Minimum inhibitory concentration, P. Piscarium, week 4, 28° C.) of the same compound?
Its MIC is 3.9 µg/mL.

And the “concentration effective as a slimicide” value (four different organisms)?
The value was < 0.01%.
